US10703748B2, “Diazanaphthalen-3-yl carboxamides and preparation and use thereof” (Samumed, LLC, priority 2017, dated 2020)

Legend:
[1] = system: α-smooth muscle actin (aSMA) positive LL29 cells; experiment: Inhibition of the fibrotic process: αSMA staining in TGF-β1 treated LL29 fibroblasts from IPF patients; settings: Homo sapiens, Fibroblast; for EC50: 96 h; for inhibition at 10 µM: read-out: percentage in parentheses after EC50 >10
[2] = system: Tau phosphorylation at Threonine 212 (pT212Tau); experiment: Tau phosphorylation at Threonine 212 (pT212Tau) in Dyrk1a- and MAPT-overexpressing HEK293T cells, sandwich ELISA; assay type: cell-based; settings: Homo sapiens, HEK-293T, overnight (16-18 hours), read-out: Thr212 EC50
Protocol: HEK293T cells (transfectable human embryonic kidney cells) were cultured in DMEM medium supplemented with 10% FBS and 1% penicillin/streptomycin.
HEK293T cells were transiently transfected to overexpress Dyrk1a and microtubule-associated protein Tau (MAPT) genes. Specifically, Dyrk1a and MAPT expression vectors were obtained from OriGene (10 μg of each, catalog numbers SC314641 and RC216166, respectively). A MaxiPrep for each vector was ordered and received from GeneWiz, yielding 874.5 μg (resuspended at […]) of the Dyrk1a expression vector, and 898 μg (resuspended at […]) of MAPT.
HEK293T cells were seeded at 1.0×10^7 cells in 10 mL per T-75 flask. […] One T-75 flask was designated as a no-vector negative control for pT212Tau signal.
After 4-6 hours of incubation in transfection reagents, transiently double transfected HEK293T cells were dissociated by treatment with trypsin EDTA and seeded at 1.0×10^5 cells in 100 μL per well in 96-well plates. No-vector negative controls were seeded in separate 96-well plates to avoid the risk of the negative control cells picking up the overexpression during incubation. At the time of seeding, DMSO-resuspended Samumed compounds were dispensed to eight wells as a serial dilution from 10 μM to 4.6 nM final concentration in medium, or at 0.12 μM to 0.05 nM with particularly potent compounds. Cells were exposed to the representative compounds overnight (16-18 hours) in a 37° C. incubator.
96-Well flat-bottom plates were coated with 100 μL per well anti-HT7 capture antibody (ThermoFisher, MN1000) diluted 1:300 in 1×PBS at 4° C. overnight, with shaking at 500 rpm. After overnight capture antibody incubation, coated plates were washed four times with 200 μL per well of 1×PBS-0.05% Tween-20, and blocked for 1 hour with 200 μL per well of 1×PBS with 2% BSA. After 1 hour of blocking, plates were washed four times with 200 μL per well of 1×PBS-0.05% Tween-20, prior to sample loading.
Wells of compound-treated cells were visually checked for cell death before being washed with 200 μL per well of 1×DPBS supplemented with phosphatase inhibitor diluted to 1×. Cells were then lysed with 100 μL 1×RIPA buffer supplemented with phosphatase and protease inhibitors (each diluted to a final 1×). Cells were shaken at 500 rpm, 4° C. for 20 minutes prior to further lysis (via manual scraping) and transfer to 96-well V-bottom collection plates (Corning, 3894). V-bottom plates were centrifuged at 4000 rpm, 4° C., for 15 minutes, and 100 μL of lysate supernatant from each well was directly tested for pT212Tau signal by sandwich ELISA.
Specifically, lysates were directly transferred to the coated and blocked ELISA plates for 2 hours before plates were washed four times with 200 μL per well of 1×PBS-0.05% Tween-20 and probed with 100 μL per well of anti-pT212Tau antibody (ThermoFisher, 44-740G) diluted 1:200 in 1×PBS for 2 hours. Plates were washed four times with 200 μL per well of 1×PBS-0.05% Tween-20 and probed with 100 μL per well of anti-rabbit/HRP conjugate (Cell Signaling Technology, 7074S) diluted 1:600 in 1×PBS for 1 hour. Plates were washed four times with 200 μL per well of 1×PBS-0.05% Tween-20 before 100 μL per well of TMB substrate solution (ThermoFisher, N301) was added. When colour development was observed, 100 μL per well of stop solution (ThermoFisher, N600) was added, and colorimetric detection of pT212Tau signal was read at 450 nm with the Cytation 3 Cell Imaging Multi-Mode Reader (BioTek). The signal was used to plot, draw the curves fitting, and determine the EC50 values in GraphPad Prism for tested representative compounds.

[3] = system: Wnt-responsive Sp5-Luc reporter in SW480 colon carcinoma cells; experiment: Screening assay for Wnt activity (Sp5-Luc reporter gene assay); settings: Homo sapiens; for EC50: SW480; for inhibition at 10 µM: SW480, read-out: percent inhibition at 10 μM
IL-6 = IL-6 inhibition in LPS-stimulated human peripheral blood mononuclear cells (HTRF); settings: Homo sapiens, PBMC; for EC50: 22 h; for inhibition at 10 µM: read-out: percentage in parentheses after EC50 >10
[4] = system: SW480 colon carcinoma cells; experiment: Cell viability assay (CellTiter-Glo); settings: Homo sapiens; for EC50: SW480, 96 h; for inhibition at 10 µM: SW480, read-out: percent inhibition at 10 μM
DYRK1A kinase = DYRK1A kinase (Homo sapiens, UniProt Q13627); experiment: DYRK1A kinase activity (Ser/Thr 18 peptide Z-lyte FRET assay); assay type: biochemical; settings: recombinant DYRK1A, 30 μM ATP, one hour at room temperature;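 also: kinase activity read as coumarin/fluorescein emission ratio after development step, with unphosphorylated and phosphorylated peptide forms setting 0% and 100% controls, values from dose-response curves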
GSK3β kinase = GSK3β kinase (Homo sapiens, UniProt P49841); experiment: GSK3β kinase activity (Ser/Thr 09 peptide Z-lyte FRET assay); assay type: biochemical; settings: recombinant kinase, 46 μM ATP, one hour at room temperature; read-out: EC50
[5] = system: secreted cytokines TNFα, IL-6 and KC-GRO; experiment: Secreted cytokines in Lipopolysaccharide-stimulated BV-2 cells (Table 9 does not say which cytokine); assay type: cell-based, mouse; settings: Mus musculus, BV-2, 5 h; read-out: EC50
[6] = system: Tau phosphorylation at Ser396 (pSer396); experiment: Tau phosphorylation at Ser396 (pSer396) in SH-SY5Y cells, ELISA / western blot; assay type: cell-based, human; settings: Homo sapiens; SH-SY5Y cells, overnight (16-18 h); read-out: pSer396 Tau EC50;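 also: decrease in pSer396 Tau measured in lysates of treated cells by colorimetric ELISA or chemiluminescent western blot, same pSer396 antibody for both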
Protocol: Two days before treatment, cells were seeded onto 96 well plates at 5×10^4 cells/well.
The above synthesized compounds were screened using the cell assay procedure to assess decrease Tau phosphorylation at Ser396 (pSer396) described below.
Cells were lysed with RIPA buffer complemented with phosphatase and protease inhibitors then lysates were spun down at 12,000 g for 10 min to remove any cellular debris.

Chain of GSK3β kinase (P49841 whole entry): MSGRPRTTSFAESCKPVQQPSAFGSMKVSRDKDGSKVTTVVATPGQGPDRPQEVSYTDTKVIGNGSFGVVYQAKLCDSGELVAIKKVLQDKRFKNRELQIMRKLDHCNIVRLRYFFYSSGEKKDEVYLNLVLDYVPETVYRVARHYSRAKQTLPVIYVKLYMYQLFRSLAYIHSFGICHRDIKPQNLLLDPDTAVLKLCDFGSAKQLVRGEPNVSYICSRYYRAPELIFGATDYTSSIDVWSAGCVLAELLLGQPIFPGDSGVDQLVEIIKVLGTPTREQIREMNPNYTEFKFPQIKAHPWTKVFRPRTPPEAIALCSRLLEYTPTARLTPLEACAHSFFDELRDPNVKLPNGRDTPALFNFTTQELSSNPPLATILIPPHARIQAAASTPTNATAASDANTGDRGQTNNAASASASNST

Compound	EC50 [1]	inhibition at 10 µM [1]	EC50 [2]	EC50 [3]	inhibition at 10 µM [3]	EC50 (IL-6)	inhibition at 10 µM (IL-6)	EC50 [4]	inhibition at 10 µM [4]	EC50 (DYRK1A kinase)	EC50 (GSK3β kinase)	EC50 [5]	EC50 [6]
CN1CCCN(CC(=O)Nc2cc3nc(-c4cnn(C)c4)ccc3cn2)CC1 [Compound 105, 2-(4-Methyl-1,4-diazepan-1-yl)-N-(2-(1-methyl-1H-pyrazol-4-yl)-1,6-naphthyridin-7-yl)acetamide]	> 10 µM	16.9%	263 nM	> 10 µM	45.4%	> 10 µM	2.6%	> 10 µM	38.9%	71 nM	541 nM	1130 nM	–
Cn1ncc(-c2ccc3cnc(NC(=O)C4CC5(C4)CN(CCF)C5)cc3n2)c1CN1CCCCC1 [Compound 280, 2-(2-Fluoroethyl)-N-(2-(1-methyl-5-(piperidin-1-ylmethyl)-1H-pyrazol-4-yl)-1,6-naphthyridin-7-yl)-2-azaspiro[3.3]heptane-6-carboxamide]	2.52 µM	–	32 nM	> 10 µM	33.7%	5.71 µM	–	2.41 µM	–	150 nM	335 nM	–	–
Cc1ncc(-c2ccc3cnc(NC(=O)N4CCC(N5CCOCC5)CC4)cc3n2)o1 [Compound 566, N-(2-(2-Methyloxazol-5-yl)-1,6-naphthyridin-7-yl)-4-morpholinopiperidine-1-carboxamide]	> 10 µM	35.2%	6600 nM	> 10 µM	33.2%	> 10 µM	3.6%	> 10 µM	19.7%	77 nM	621 nM	–	–
Cn1cncc1-c1ccc2cnc(NC(=O)c3ccc(F)cc3)nc2c1 [Compound 1354, 4-Fluoro-N-(7-(1-methyl-1H-imidazol-5-yl)quinazolin-2-yl)benzamide]	5.09 µM	–	6 nM	2.38 µM	–	> 10 µM	39.9%	5.34 µM	–	2 nM	1170 nM	–	–
Cc1nnc(-c2ccc3cnc(NC(=O)CN4C5CCC4CC5)nc3c2)s1 [Compound 1632, 2-(7-Azabicyclo[2.2.1]heptan-7-yl)-N-(7-(5-methyl-1,3,4-thiadiazol-2-yl)quinazolin-2-yl)acetamide]	> 10 µM	28.8%	402 nM	> 10 µM	19.2%	> 10 µM	4.2%	> 10 µM	21.3%	500 nM	943 nM	–	–
Cc1ncc(-c2ccc3cnc(NC(=O)[C@H]4CC[C@H](N(C)C)CC4)cc3n2)s1 [Compound 4559, trans-4-(Dimethylamino)-N-(2-(2-methylthiazol-5-yl)-1,6-naphthyridin-7-yl) cyclohexane-1-carboxamide]	0.589 µM	–	–	> 10 µM	40.8%	8.5 µM	–	> 10 µM	44.8%	14 nM	110 nM	411 nM	2400 nM
Cc1ncc(-c2ccc3cnc(NC(=O)C4CCN(C5COC5)CC4)cc3n2)s1 [Compound 4560, N-(2-(2-Methylthiazol-5-yl)-1,6-naphthyridin-7-yl)-1-(oxetan-3-yl) piperidine-4-carboxamide]	0.779 µM	–	–	> 10 µM	49.7%	> 10 µM	2.7%	> 10 µM	37.5%	14 nM	127 nM	117 nM	992 nM
CN1CCC(Nc2cc(C(=O)Nc3ncc4ccc(-c5cnn(C)c5)cc4n3)ccn2)CC1 [Compound 4569, N-(7-(1-Methyl-1H-pyrazol-4-yl)quinazolin-2-yl)-2-((1-methylpiperidin-4-yl)amino)isonicotinamide]	4.09 µM	–	238 nM	0.57 µM	–	> 10 µM	42.3%	2.22 µM	–	8 nM	> 10000 nM	–	–
O=C(Nc1ncc2ccc(-c3cncs3)cc2n1)[C@H]1CC[C@H](CO)CC1 [Compound 4586, trans-4-(hydroxymethyl)-N-(7-(thiazol-5-yl)quinazolin-2-yl)cyclohexane-1-carboxamide]	4.44 µM	–	–	> 10 µM	29.6%	> 10 µM	4.8%	> 10 µM	25.1%	2 nM	336 nM	380 nM	8800 nM
O=C(Nc1cc2cc(-c3cnco3)cnc2cn1)[C@H]1CC[C@H](CO)CC1 [Compound 4610]	4.19 µM	–	–	> 10 µM	9.1%	> 10 µM	10.3%	> 10 µM	24.6%	29 nM	> 10000 nM	261 nM	> 10000 nM
CN(C)[C@H]1CC[C@H](C(=O)Nc2cc3cc(-c4cncs4)cnc3cn2)CC1 [Compound 4618]	4.81 µM	–	–	> 10 µM	14.6%	> 10 µM	6.3%	> 10 µM	36.1%	18 nM	3820 nM	108 nM	1050 nM
CN1CCN(c2ncc(C(=O)Nc3cc4cc(-c5cnn(C)c5)ncc4cn3)s2)CC1 [Compound 4632, N-(6-(1-methyl-1H-pyrazol-4-yl)-2,7-naphthyridin-3-yl)-2-(4-methylpiperazin-1-yl)thiazole-5-carboxamide]	> 10 µM	35.5%	–	0.922 µM	–	> 10 µM	6.8%	> 10 µM	40.9%	5 nM	321 nM	700 nM	7930 nM
